# Laboratory results taken from patent US6872805B2 (Bristol-Myers Squibb Company, priority 2000, dated 2005).
# Read-outs that look alike come from different tables or passages of the source.
# Key:
# [1] = molecular target: HCV NS3/4A protease complex (Hepatitis C virus genotype 1a, UniProt P27958, C1454S/C1711G); assay: Recombinant HCV NS3/4A protease complex FRET peptide assay (strain not stated); type: biochemical; details: strain not stated, activity ranges
# Excerpt: The purpose of this in vitro assay was to measure the inhibition of HCV NS3 protease complexes, derived from the BMS, H77C or J416S strains, as described below, by compounds of the present invention.
# Serum from an HCV-infected patient was obtained from Dr. T. Wright, San Francisco Hospital. An engineered full-length cDNA template of the HCV genome (BMS strain) was constructed from DNA fragments obtained by reverse transcription-PCR (RT-PCR) of serum RNA and using primers selected on the basis of homology between other genotype 1a strains. […] The infectious clones, H77C (1a genotype) and J4L6S (1b genotype) were obtained from R. Purcell (NIH) and the sequences are published in genebank (AAB67036, see Yanagi, M., Purcell, R. H., Emerson, S. U. and Bukh, J. Proc. Natl. Acad. Sci. U.S.A. 94(16),8738-8743 (1997); AF054247, see Yanagi, M., St Claire, M., Shapiro, M., Emerson, S. U., Purcell, R. H. and Bukh, J, Virology 244 (1), 161-172. (1998)).
# The BMS, H77C and J4L6S strains were used for production of recombinant NS3/4A protease complexes. DNA encoding the recombinant HCV NS3/4A protease complex (amino acid 1027 to 1711) for these strains were manipulated as described by P. Gallinari et al. (see Gallinari P, Paolini C, Brennan D, Nardi C, Steinkuhler C, De Francesco R. Biochemistry. 38(17):5620-32, (1999)). Briefly, a three-lysine solubilizing tail was added at the 3′-end of the NS4A coding region. The cysteine in the P1 position of the NS4A-NS4B cleavage site (amino acid 1711) was changed to a glycine to avoid the proteolytic cleavage of the lysine tag. Furthermore, a cysteine to serine mutation was introduced by PCR at amino acid position 1454 to prevent the autolytic cleavage in the NS3 helicase domain. The variant DNA fragment was cloned in the pET21b bacterial expression vector and the NS3/4A complex was expressed in E. coli BL21 (DE3) following the protocol described by P. Gallinari et al. (see Gallinari P, Brennan D, Nardi C, Brunetti M, Tomei L, Steinkuhler C, De Francesco R., J Virol. 72(8):6758-69 (1998)) with modifications. Briefly, NS3/4A expression was induced with 0.5 mM IPTG for 22 hr at 20° C. […] The cells were resuspended in lysis buffer (10 mL/g) consisting of 25 mM HEPES, pH 7.5, 20% glycerol, 500 mM NaCl, 0.5% Triton-X100, 1 ug/ml lysozyme, 5 mM MgCl2, 1 ug/ml DNaseI 5 mM β-Mercaptoethanol (βME), Protease inhibitor—EDTA free, homogenized and incubated for 20 mins at 4° C. The homogenate was sonicated and clarified by ultra-centrifugation at 235000 g for 1 hr at 4° C. Imidazole was added to the supernatant to a final concentration of 15 mM and the pH adjusted to 8.0. The crude protein extract was loaded on a Ni-NTA column pre-equilibrated with buffer B (25 mM HEPES, pH 8.0, 20% glycerol, 500 mM NaCl, 0.5% Triton-X100, 15 mM imidazole, 5 mM βME). The sample was loaded at a flow rate of 1 mL/min. The column was washed with 15 column volumes of buffer C (same as buffer B except with 0.2% Triton-X100). The protein was eluted with 5 column volumes of 200 mM Imidazole in buffer.
# NS3/4A protease complex-containing fractions were pooled and loaded on a desalting column Superdex-S200 pre-equilibrated with buffer D (25 mM HEPES, pH 7.5, 20% glycerol, 300 mM NaCl, 0.2% Triton-X100, 10 mM βME). Sample was loaded at a flow rate of 1 mL/min. NS3/4A protease complex-containing fractions were pooled and concentrated to approximately 0.5 mg/ml.
# [2] = system: HCV replicon in Huh7 cells; assay: HCV replicon cell-based assay; design: species or system HCV strain 1B; details: HCV replicon, Huh7 cells, 4 days, activity ranges, read-out: EC50
# Excerpt: An HCV replicon whole cell system was established as described by Lohmann V, Korner F, Koch J, Herian U, Theilmann L, Bartenschlager R., Science 285(5424):110-3 (1999). This system enabled us to evaluate the effects of our HCV Protease compounds on HCV RNA replication. Briefly, using the HCV strain 1B sequence described in the Lohmann paper (Assession number:AJ238799), an HCV cDNA was generated encoding the 5′ internal ribosome entry site (IRES), the neo gene, the EMCV-IRES and the HCV nonstructural proteins, NS3-NS5B, and 3′ NTR. […] Resulting cell lines were characterized for positive and negative RNA production and protein production over time.
# Huh7 cells, constitutively expressing the HCV replicon, were grown in DMEM containing 10% FCS (Fetal calf serum) and 1 mg/ml G418 (Gibco-BRL). Cells were seeded the night before (1.5×10^4 cells/well) in 96-well tissue-culture sterile plates. Compound was prepared in DMEM containing 4% FCS, 1:100 Penicillin/Streptomysin, 1:100 L-glutamine and 0.5% DMSO. Compound/DMSO mixes were added to the cells and incubated for 4 days at 37° C. After 4 days, cells were either lyzed using the Rneasy kit (Qiagen) to isolate and purify RNA for an EC50 determination or assessed for cytotoxicity using alamar Blue (Trek Diagnotstic Systems) for a CC50 reading. For an EC50 determination, purified total RNA was normalized using RiboGreen (Jones L J, Yue S T, Cheung C Y, Singer V L, Anal. Chem., 265(2):368-74 (1998)) and relative quantitation of HCV RNA expression assessed using the Taqmann procedure (Kolykhalov A A, Mihalik K, Feinstone S M, Rice C M, Journal of Virology 74, 2046-2051 (2000)). Briefly, RNA made to a volume of 5 μl (≦1 ng) was added to a 20 μl Ready-Mix containing the following: 5×EZ rTth buffer, 3 mM MnOAc2, 3 mM dNTPs, 200 nM forward primer, 600 nM reverse primer, 100 nM probe and rTth polymerase. Samples containing known concentrations of HCV RNA transcript were run as standards. Using the following cycling protocol (95° C., 1 min; 60° C., 0.5 min; 95° C., 2 min; 40 cycles of 94° C., 0.5 min, 60° C.; 1 min; and completing with 60° C., 10 min), HCV RNA expression was quantitated as described in the Perkin Elmer manual. The toxicity of compound (CC50) was determined by adding 1/10th volume of alamar Blue to the media incubating the cells. After 4 hr, the fluorescence signal from each well was read, with an excitation wavelength at 530 nm and an emission wavelength of 580 nm, using the Cytofluor Series 4000 (Perspective Biosystems).
# [3] = IC50, NS3/4A protease enzyme assay
# Sequence of HCV NS3/4A protease complex (P27958 1027-1711, stated change not applied): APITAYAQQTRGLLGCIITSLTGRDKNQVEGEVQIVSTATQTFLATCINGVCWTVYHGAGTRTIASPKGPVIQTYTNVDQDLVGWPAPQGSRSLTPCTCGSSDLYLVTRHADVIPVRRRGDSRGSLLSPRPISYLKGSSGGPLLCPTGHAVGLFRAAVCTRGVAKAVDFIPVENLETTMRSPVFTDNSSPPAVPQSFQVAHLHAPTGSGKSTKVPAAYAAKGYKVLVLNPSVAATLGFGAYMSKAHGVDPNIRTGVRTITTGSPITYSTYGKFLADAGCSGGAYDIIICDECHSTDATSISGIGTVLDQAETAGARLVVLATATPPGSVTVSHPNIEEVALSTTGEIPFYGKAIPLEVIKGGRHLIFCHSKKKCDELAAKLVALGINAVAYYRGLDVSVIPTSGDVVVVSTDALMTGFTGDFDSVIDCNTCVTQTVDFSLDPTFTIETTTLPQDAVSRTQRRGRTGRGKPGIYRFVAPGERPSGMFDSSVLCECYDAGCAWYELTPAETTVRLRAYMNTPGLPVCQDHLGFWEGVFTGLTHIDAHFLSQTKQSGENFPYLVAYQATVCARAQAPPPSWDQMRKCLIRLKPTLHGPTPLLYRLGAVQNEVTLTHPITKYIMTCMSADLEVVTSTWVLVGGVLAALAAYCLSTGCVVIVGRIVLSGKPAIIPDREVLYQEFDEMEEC
# Sequence of HCV NS3/4A protease complex (P27958 1027-1711, stated change not applied): as above
compound,measurement,setting,value
"1-[2S-(4-fluoro-benzenesulfonylamino)-3,3-dimethyl-butyryl]-4R-(7-methoxy-2-phenylquinolin-4-yloxy)-pyrrolidine-2S-carboxylic acid (1R-cyclopropanesulfonylaminocarbonyl -2S-vinyl-cyclopropyl)amide [Compound 119]",IC50,"[1]; NS3/4A protease enzyme assay, read-out: IC50",< 50 nM
same,EC50,[2],< 500 nM
"CCC1C[C@]1(NC(=O)[C@@H]1C[C@@H](Oc2cc(-c3ccccc3)nc3cc(OC)ccc23)CN1C(=O)[C@@H](NC(=O)OC(C)(C)C)C(C)(C)C)C(=O)NS(=O)(=O)C1CC1 (stereo in doubt) [Compound 2, {1-[2-(1-cyclopropanesulfonylamino-carbonyl-2-ethylcyclopropylcarbamoyl)-4-(7-methoxy-2-phenyl-quinolin-4-yloxy)-pyrrolidine-1-carbonyl]-2,2-dimethylpropyl}carbamic acid tert-butyl ester]",IC50,[1]; [3],< 50 nM
same,EC50,"[2]; Hepatitis C virus, Huh-7, 96 h",< 50 nM
"CCC1C[C@]1(NC(=O)[C@@H]1C[C@@H](Oc2cc(-c3ccccc3)nc3cc(OC)ccc23)CN1C(=O)[C@@H](NC(=O)OC(C)(C)C)C(C)C)C(=O)NS(=O)(=O)C1CC1 (stereo in doubt) [Compound 3, {1-[2-(1-cyclopropanesulfonylaminocarbonyl-2-ethylcyclopropylcarbamoyl)-4-(7-methoxy-2-phenylquinolin-4-yloxy)pyrrolidine-1-carbonyl]-2-methylpropyl}carbamic acid tert-butyl ester]",IC50,[1]; [3],< 50 nM
same,EC50,"[2]; Hepatitis C virus, Huh-7, 96 h",< 50 nM
"CCC1C[C@]1(NC(=O)[C@@H]1C[C@@H](Oc2cc(-c3ccccc3)nc3cc(OC)ccc23)CN1C(=O)[C@@H](NC(=O)CC1CC1)C(C)C)C(=O)NS(=O)(=O)C1CC1 (stereo in doubt) [Compound 5, 1-[2-(2-cyclopropylacetylamino)-3-methylbutyryl]-4-(7-methoxy-2-phenylquinolin-4-yloxy)pyrrolidine-2-carboxylic acid (1-cyclopropanesulfonylaminocarbonyl-2-ethylcyclopropyl)amide]",IC50,[1]; [3],< 50 nM
same,EC50,"[2]; Hepatitis C virus, Huh-7, 96 h",< 50 nM
"CCCNC(=O)N[C@H](C(=O)N1C[C@H](Oc2cc(-c3ccccc3)nc3cc(OC)ccc23)C[C@H]1C(=O)N[C@]1(C(=O)NS(=O)(=O)C2CC2)CC1CC)C(C)C (stereo in doubt) [Compound 8, 4-(7-methoxy-2-phenylquinolin-4-yloxy)-1-[3-methyl-2-(3-propylureido)butyryl]pyrrolidine-2-carboxylic acid (1-cyclopropanesulfonylaminocarbonyl-2-ethylcyclopropyl)amide]",IC50,[1]; [3],< 50 nM
same,EC50,"[2]; Hepatitis C virus, Huh-7, 96 h",< 50 nM
"C=CC1C[C@]1(NC(=O)[C@@H]1C[C@@H](Oc2cc(-c3ccccc3)nc3cc(OC)ccc23)CN1C(=O)[C@@H](NC(=O)OC(C)(C)C)C(C)(C)C)C(=O)NS(=O)(=O)C1CC1 (stereo in doubt) [Compound 10, {1-[2-(1-Cyclopropanesulfonylaminocarbonyl-2-vinylcyclopropylcarbamoyl)-4-(7-methoxy-2-phenylquinolin-4-yloxy)-pyrrolidine-1-carbonyl]-2,2-dimethylpropyl}carbamic acid tert-butyl ester]",IC50,[1]; [3],< 50 nM
same,EC50,"[2]; Hepatitis C virus, Huh-7, 96 h",< 50 nM
"C=CC1C[C@]1(NC(=O)[C@@H]1C[C@@H](Oc2cc(-c3ccccc3)nc3cc(OC)ccc23)CN1C(=O)[C@@H](NC(=O)OC(C)(C)C)C(C)(C)C)C(=O)NS(=O)(=O)C1CCC1 (stereo in doubt) [Compound 11, {1-[2-(1-Cyclobutanesulfonylaminocarbonyl-2-vinylcyclo-propylcarbamoyl)-4-(7-methoxy-2-phenylquinolin-4-yloxy)-pyrrolidine-1-carbonyl]-2,2-dimethylpropyl}carbamic acid tert-butyl ester]",IC50,[1]; [3],< 50 nM
same,EC50,"[2]; Hepatitis C virus, Huh-7, 96 h",< 50 nM
"C=CC1C[C@]1(NC(=O)[C@@H]1C[C@@H](Oc2cc(-c3ccccc3)nc3cc(OC)ccc23)CN1C(=O)[C@@H](NC(=O)OC(C)(C)C)C(C)(C)C)C(=O)NS(=O)(=O)C1CCCC1 (stereo in doubt) [Compound 12, {1-[2-(1-Cyclopentanesulfonylaminocarbonyl-2-vinylcyclopropylcarbamoyl)-4-(7-methoxy-2-phenylquinolin-4-yloxy)-pyrrolidine-1-carbonyl]-2,2-dimethylpropyl}carbamic acid tert-butyl ester]",IC50,[1]; [3],< 500 nM
same,EC50,"[2]; Hepatitis C virus, Huh-7, 96 h",< 500 nM
"C=CC1C[C@]1(NC(=O)[C@@H]1C[C@@H](Oc2cc(-c3ccccc3)nc3cc(OC)ccc23)CN1C(=O)[C@@H](NC(=O)OC(C)(C)C)C(C)(C)C)C(=O)NS(=O)(=O)C1CCCCC1 (stereo in doubt) [Compound 13, {1-[2-(1-Cyclohexanesulfonylaminocarbonyl-2-vinylcyclopropylcarbamoyl)-4-(7-methoxy-2-phenylquinolin-4-yloxy)pyrrolidine-1-carbonyl]-2,2-dimethylpropyl}carbamic acid tert-butyl ester]",IC50,[1]; [3],< 500 nM
same,EC50,"[2]; Hepatitis C virus, Huh-7, 96 h",< 500 nM
"C=CC1C[C@]1(NC(=O)[C@@H]1C[C@@H](Oc2cc(-c3ccccc3)nc3cc(OC)ccc23)CN1C(=O)[C@@H](NC(=O)OC(C)(C)C)C(C)(C)C)C(=O)NS(=O)(=O)CC(C)(C)C (stereo in doubt) [Compound 14, {1-[2-[1-(2,2-Dimethylpropane-1-sulfonylaminocarbonyl)-2-vinylcyclopropylcarbamoyl]-4-(7-methoxy-2-phenylquinolin-4-yloxy)pyrrolidine-1-carbonyl]-2,2-dimethylpropyl}-carbamic acid tert-butyl ester]",IC50,[1]; [3],< 500 nM
same,EC50,"[2]; Hepatitis C virus, Huh-7, 96 h",< 500 nM
